For the assay, the system named is monocrotaline induced hypertension in rats. Description: Monocrotaline-induced hypertension rat model, tail-cuff blood pressure and pulse. Type of assay: in vivo, Sprague-Dawley rats. As for the experimental part: Animal Care and Handeling. Sprague-Dawley rats (Charles River Laboratories, Wilmington, Mass.) 60 days old and weighing 140-160 g were utilized. Animals were kept in standard autoclaved rodent cages with ad libitum food (Harlan Teklad Irradiated Rodent Diet) and autoclaved water. The rats were housed on Harlan Tek-chip pelleted paper in static micro isolators maintained at 22° C., 60% relative humidity, and under a 12 h light cycle. The animals were kept at the facility for 5 days to get accustomed to the environment after the arrival from the vendor. All animal care procedures complied with the recommendations of the Guide for Care and Use of Laboratory Animals with respect to restraint, husbandry, surgical procedures, feed and fluid regulation, and veterinary care. Induction of hypertension and the treatment. Rats were injected subcutaneously with monocrotaline (MCT, 60 mg kg^−1) and monitored for 12 days for the development of pulmonary inflammation and initiation of the pulmonary hypertensive response. After the incubation period, Tristenonol aglycone (Cmp. 15 of the present invention) was administrated orally to the animals in three different doses (120, 90, and 60 mg kg^−1 body weights). Blood pressure (BP; Systolic and Diastolic) and heart beats were recorded three times a day 24, 48, and 72 h after administration of compound BP.
Test Articles and Animal Groups. Three doses of Tristenonol aglycone (Cmp 15 of the present invention) were tested. The animals were randomized before and grouped in to 10 animals per group. For positive controls used the commercially available drug Atenol® was used.
Rats were sorted into six groups of ten and treated according to the protocol in Table 1. […] All remaining groups were administered monocrotaline. […] Groups 3, 4 and 5 received Tristenonol aglycone (Cmp 15 of the present invention) at […], 90, and 60 mg respectively per kg body weight 12 days after induction of hypertension with monocrotaline. Positive Control Group 6 was given the commercial drug Atenol® at 120 mg kg^−1.
Systolic blood pressure, diastolic blood pressure and heart beats were recorded in the morning, afternoon and evening three times, 24, 48, and 72 h after Tristenonol aglycone (Cmp 15) and Atenol® administration.
Protocol for the Measurement of the Blood Pressure. A tail-cuff was placed on the tail to occlude the blood flow. Upon deflation a non-invasive blood pressure sensors, placed distal to the occlusion cuff, was utilized to monitor the blood pressure. Volume Pressure Recording. The volume pressure recording sensor utilizes a specially designed differential pressure transducer to non-invasively measure the blood volume in the tail. Volume pressure recording actually measured six blood pressure parameters simultaneously: systolic blood pressure, diastolic blood pressure, mean blood pressure, heart pulse rate, tail blood volume and tail blood flow. […] In addition, volume pressure recording was not dependent on the skin pigmentation of the animal. Dark-skinned animals have no negative effect on volume pressure recording measurements. Special attention was afforded to the length of the occlusion cuff with volume pressure recording in order to derive the most accurate blood pressure readings. Endpoint Measurements. Each animal was sacrificed when the animal reached the predetermined endpoint of being moribund or when the animals remained […]. The animals were observed and if found incapable of eating or drinking or if their body temperature were too low to sustain life, the animals were sacrificed. Treatment efficacy is determined from the reduction in systolic blood pressure, diastolic blood pressure and heart beats of the animal compared to the untreated control group. Toxicity and Necropsy Examination. Animals were weighed daily throughout the experiment. […]

[1] abbreviates: 120 mg kg^−1 body weight, rats with monocrotaline.
Where [2] appears, read: monocrotaline 60 mg kg^−1 subcutaneously.

`CC(C)NCC(O)COc1ccc(CC(N)=O)cc1` (stereo not drawn) [Atenol®]: under setting [1], the “decrease in Diastolic blood pressure compared to untreated control” value was 24-25% and the “reduction in pulse rate compared to untreated controls” value is listed as 35-36.38%. The “reduction of mean Systolic blood pressure compared to untreated animals” value (120 mg kg^−1 body weight, rats with monocrotaline, 24-72 h) is 28%.

Consider `C[C@H]1C(=O)O[C@@H]2CCN3CC=C(COC(=O)[C@](C)(O)[C@]1(C)O)[C@H]23` [Monocrotaline, monocrotaline], for which, under setting [2], the “increase in Diastolic blood pressure in injected rats” value was 49-52%, the “increase in Systolic blood pressure in injected rats” value is given as 40-45% and the “increase in pulse rate in injected animals” value is reported as 60-70%.

(Values after patent US20100152285A1, “Flavononol Renin Inhibitor Compounds and Methods of Use Thereof” (HerbalScience Group LLC, priority 2008, published 2010).)
